Assay results from patent US9975854B2, “Benzomorphan analogs and use thereof” (Purdue Pharma L.P., priority 2014, dated 2018).

Columns and labels:
Format in all cases: biochemical
μ-opioid receptor [1] = target: T1, μ-opioid receptor (Homo sapiens (Human), UniProt P35372); test: μ-opioid receptor [35S]GTPγS functional assay, U-2 OS cells; conditions: for Emax: relative to DAMGO
Experimental: (§1) [^35S]GTPγS functional assays were conducted using freshly thawed μ-receptor membranes prepared in-house from a cell line expressing recombinant opioid receptor in a HEK-293, CHO or U-2 OS cell background, or purchased from a commercial source (Perkin Elmer, Shelton, Conn.; or DiscovRx, Fremont, Calif.). Assay reactions were prepared by sequentially adding the following reagents to binding buffer (100 mM NaCl, 10 mM MgCl2, 20 mM HEPES, pH 7.4) on ice (final concentrations indicated): membrane protein (0.026 mg/mL), saponin ([…]), GDP ([…]) and [^35S]GTPγS (0.20 nM; Perkin Elmer, Shelton, Conn.). The prepared membrane solution (190 μl/well) was transferred to 96-shallow well polypropylene plates containing 10 μl of 20× concentrated stock solutions of the agonist [D-Ala^2, N-methyl-Phe^4 Gly-ol^5]-enkephalin (DAMGO) prepared in dimethyl sulfoxide (DMSO). Plates were incubated for 30 min at about 25° C. with shaking. Reactions were terminated by rapid filtration onto 96-well Unifilter GF/B filter plates (Perkin Elmer, Shelton, Conn.) using a 96-well tissue harvester (Perkin Elmer, Shelton, Conn.) followed by three filtration washes with 200 μl of ice-cold wash buffer (10 mM NaH2PO4, 10 mM Na2HPO4, pH 7.4). Filter plates were subsequently dried at 50° C. for 2-3 hr. BetaScint scintillation cocktail (Perkin Elmer, Shelton, Conn.) was added (50 μl/well) and plates were counted using a Packard Top-Count for 1 min/well. Data were analyzed using the sigmoidal dose-response curve fitting functions in GraphPad PRISM v. 3.0, or an in-house function for non-linear, sigmoidal dose-response curve-fitting.
(§2) μ GTP EC50 is the concentration of a compound providing 50% of the maximal response for the compound at a μ-opioid receptor.
(§3) μ GTP Emax (%) is the maximal effect elicited by a compound relative to the effect elicited by DAMGO, a standard p agonist. Generally, the μ GTP Emax (%) value measures the efficacy of a compound to treat or prevent pain or other Conditions.
(§4) In TABLE 5, activity response of certain Compounds of the Invention to the μ- and κ-opioid receptors was determined as described above for functional assays using U-2 OS cells.

κ-opioid receptor = κ-opioid receptor (Homo sapiens (Human), UniProt P41145); test: κ-opioid receptor [35S]GTPγS functional assay, U-2 OS cells; conditions: for Emax: relative to U69,593
Experimental: Functional [^35S]GTPγS binding assays were conducted as follows. K opioid receptor membrane solution was prepared by sequentially adding final concentrations of 0.026 μg/μl κ membrane protein (in-house), 10 μg/mL saponin, 3 μM GDP and 0.20 nM [^35S]GTPγS to binding buffer (100 mM NaCl, 10 mM MgCl2, 20 mM HEPES, pH 7.4) on ice. The prepared membrane solution (190 μl/well) was transferred to 96-shallow well polypropylene plates containing 10 μl of 20× concentrated stock solutions of agonist prepared in DMSO. Plates were incubated for 30 min at a temperature of about 25° C. with shaking. Reactions were terminated by rapid filtration onto 96-well Unifilter GF/B filter plates (Perkin Elmer, Shelton, Conn.) using a 96-well tissue harvester (Packard) and followed by three filtration washes with 200 μl ice-cold binding buffer (10 mM NaH2PO4, 10 mM Na2HPO4, pH 7.4). Filter plates were subsequently dried at 50° C. for 2-3 hours. Fifty μl/well scintillation cocktail (Perkin Elmer, Shelton, Conn.) was added and plates were counted in a Packard Top-Count for 1 min/well.
κ GTP EC50 is the concentration of a compound providing 50% of the maximal response for the compound at a κ receptor.
κ GTP Emax (%) is the maximal effect elicited by a compound relative to the effect elicited by U69,593.
as §4

μ-opioid receptor [2] = target: T1, μ-opioid receptor; test: μ-opioid receptor [35S]GTPγS functional assay, HEK-293 or CHO cells; conditions: HEK-293 or CHO cells; for EC50: read-out: GTPγS μ EC50; for Emax: relative to DAMGO
Experimental: as §1, §2, §3
In TABLE 4, activity response of certain Compounds of the Invention to the μ- and κ-opioid receptors was determined as described above for functional assays using HEK-293 or CHO cells.

CN1CC[C@@]2(C)c3cc(O)ccc3C[C@@H]1[C@@H]2N(C)CC(=O)Nc1nc2ccc(F)cc2s1 [Compound 40, N-(6-fluorobenzo[d]thiazol-2-yl)-2-(((2R,6S,11R)-8-hydroxy-3,6-dimethyl-1,2,3,4,5,6-hexahydro-2,6-methanobenzo[d]azocin-11-yl)(methyl)amino)acetamide]
EC50 (μ-opioid receptor [1]): 539 ± 62.8 nM | Emax (μ-opioid receptor [1]): 18.7 ± 0.67% | EC50 (κ-opioid receptor): 10900 ± 1410 nM | Emax (κ-opioid receptor): 45.2 ± 4.82%

CN1CC[C@@]2(C)c3cc(O)ccc3C[C@@H]1[C@H]2NCCC1(O)CCCCC1 [Compound 12, (2R,6S,11S)-11-((2-(1-hydroxycyclohexyl)ethyl)amino)-3,6-dimethyl-1,2,3,4,5,6-hexahydro-2,6-methano-benzo[d]azocin-8-ol]
EC50 (μ-opioid receptor [1]): 33.6 ± 1.43 nM | Emax (μ-opioid receptor [1]): 100 ± 1.67% | EC50 (μ-opioid receptor [2]): 0.223 ± 0.0298 µM | Emax (μ-opioid receptor [2]): 47.7 ± 4.84% | EC50 (κ-opioid receptor): 137 ± 20.1 nM | Emax (κ-opioid receptor): 54 ± 5.92%

CN1CC[C@@]2(C)c3cc(O)ccc3C[C@@H]1[C@@H]2N(C)C(=O)CC(=O)Nc1ccc(F)cc1F [Compound 26, N^1-(2,4-difluorophenyl)-N^3—((2R,6S,11R)-8-hydroxy-3,6-dimethyl-1,2,3,4,5,6-hexahydro-2,6-methanobenzo[d]azocin-11-yl)-N^3-methylmalonamide]
EC50 (μ-opioid receptor [1]): 0.33 ± 0.025 nM | Emax (μ-opioid receptor [1]): 107 ± 3.06% | EC50 (μ-opioid receptor [2]): 0.00397 ± 0.00025 µM | Emax (μ-opioid receptor [2]): 76.7 ± 2.73% | EC50 (κ-opioid receptor): 54.3 ± 9.45 nM | Emax (κ-opioid receptor): 81.7 ± 10.7%

CN1CC[C@@]2(C)c3cc(C(N)=O)ccc3C[C@@H]1[C@@H]2N(C)C(=O)Nc1ccc(C#N)cc1 [Compound 119, (2R,6S,11R)-11-(3-(4-cyanophenyl)-1-methylureido)-3,6-dimethyl-1,2,3,4,5,6-hexahydro-2,6-methanobenzo[d]azocine-8-carboxamide]
EC50 (μ-opioid receptor [2]): 4.95 ± 0.508 µM | Emax (μ-opioid receptor [2]): 43.9 ± 1.88%

CN(CC1CCN(S(=O)(=O)C2CCCC2)CC1)C1[C@H]2Cc3ccc(O)cc3C1(C)CCN2C (stereo in doubt) [Compound 60, (2R,6S,11S)-11-(((1-(cyclopentylsulfonyl)piperidin-4-yl)methyl)(methyl)amino)-3,6-dimethyl-1,2,3,4,5,6-hexahydro-2,6-methanobenzo[d]azocin-8-ol]
EC50 (μ-opioid receptor [2]): 0.012 ± 0.00174 µM | Emax (μ-opioid receptor [2]): 22.3 ± 2.34%

CN1CC[C@@]2(C)c3cc(O)ccc3C[C@@H]1[C@@H]2N(C)CC1CCN(S(=O)(=O)C2CC2)CC1 [Compound 57, (2R,6S,11R)-11-(((1-(cyclopropylsulfonyl)piperidin-4-yl)methyl)(methyl)amino)-3,6-dimethyl-1,2,3,4,5,6-hexahydro-2,6-methanobenzo[d]azocin-8-ol]
EC50 (μ-opioid receptor [2]): 0.0905 ± 0.0181 µM | Emax (μ-opioid receptor [2]): 43 ± 1.53%

CN1CC[C@@]2(C)c3cc(O)ccc3C[C@@H]1[C@H]2N(C)C(=O)Cc1ccc(S(C)(=O)=O)cc1 [Compound 35, N-((2R,6S,11S)-8-hydroxy-3,6-dimethyl-1,2,3,4,5,6-hexahydro-2,6-methanobenzo[d]azocin-11-yl)-N-methyl-2-(4-(methylsulfonyl)phenyl)acetamide]
EC50 (μ-opioid receptor [2]; bound given in uM): > 20 µM | Emax (μ-opioid receptor [2]): 2 ± 0.41%

CCCN(C(=O)Nc1ccc(C#N)cc1)[C@H]1[C@H]2Cc3ccc(O)cc3[C@]1(C)CCN2C [Compound 92, 3-(4-cyanophenyl)-1-((2R,6S,11R)-8-hydroxy-3,6-dimethyl-1,2,3,4,5,6-hexahydro-2,6-methanobenzo[d]azocin-11-yl)-1-propylurea]
EC50 (μ-opioid receptor [2]): 0.0964 ± 0.00352 µM | Emax (μ-opioid receptor [2]): 43.8 ± 1.03%

CN1CC[C@@]2(C)c3cc(O)ccc3C[C@@H]1[C@@H]2N(C)C(=O)Nc1nc2ccccc2[nH]1 [Compound 107, 3-(1H-benzo[d]imidazol-2-yl)-1-((2R,6S,11R)-8-hydroxy-3,6-dimethyl-1,2,3,4,5,6-hexahydro-2,6-methanobenzo[d]azocin-11-yl)-1-methylurea]
EC50 (μ-opioid receptor [2]): 0.00681 ± 0.00286 µM | Emax (μ-opioid receptor [2]): 30.6 ± 1.51%

CN1CC[C@@]2(C)c3cc(O)ccc3C[C@@H]1[C@H]2NC(=O)Nc1nc2cc(F)ccc2s1 [Compound 122, 1-(5-Fluorobenzo[d]thiazol-2-yl)-3-((2R,6S,11S)-8-hydroxy-3,6-dimethyl-1,2,3,4,5,6-hexahydro-2,6-methanobenzo[d]azocin-11-yl)urea]
EC50 (μ-opioid receptor [2]): 0.375 ± 0.106 µM | Emax (μ-opioid receptor [2]): 13.6 ± 1.14%

CN1CCC2(C)c3cc(O)ccc3C[C@@H]1C2NC(=O)/C=C/c1ccoc1 (stereo in doubt) [Compound 32, (E)-3-(furan-3-yl)-N-((2R,6S,11S)-8-hydroxy-3,6-dimethyl-1,2,3,4,5,6-hexahydro-2,6-methanobenzo[d]azocin-11-yl)acrylamide]
EC50 (μ-opioid receptor [2]; bound given in uM): > 20 µM | Emax (μ-opioid receptor [2]): 2.33 ± 0.88%

CN1CC[C@@]2(C)c3cc(O)ccc3C[C@@H]1[C@@H]2N(C)C(=O)Nc1nc2ccccc2o1 [Compound 121, 3-(Benzo[d]oxazol-2-yl)-1-((2R,6S,11R)-8-hydroxy-3,6-dimethyl-1,2,3,4,5,6-hexahydro-2,6-methanobenzo[d]azocin-11-yl)-1-methylurea]
EC50 (μ-opioid receptor [2]): 0.0824 ± 0.0104 µM | Emax (μ-opioid receptor [2]): 60.1 ± 4.74%

CN1CC[C@@]2(C)c3cc(O)ccc3C[C@@H]1[C@H]2NCCCCNC(=O)OC(C)(C)C [Compound 19, Tert-butyl (4-(((2R,6S,11S)-8-hydroxy-3,6-dimethyl-1,2,3,4,5,6-hexahydro-2,6-methanobenzo[d]azocin-11-yl)amino)butyl)carbamate]
EC50 (μ-opioid receptor [2]; bound given in uM): > 20 µM | Emax (μ-opioid receptor [2]): 0%

CN1CC[C@@]2(C)c3cc(O)ccc3C[C@@H]1[C@@H]2NC(=O)Cc1ccc(S(C)(=O)=O)cc1 [Compound 33, N-((2R,6S,11R)-8-hydroxy-3,6-dimethyl-1,2,3,4,5,6-hexahydro-2,6-methanobenzo[d]azocin-11-yl)-2-(4-(methylsulfonyl)phenyl)acetamide]
EC50 (μ-opioid receptor [2]): 5.28 ± 1.26 µM | Emax (μ-opioid receptor [2]): 13%

CN1CC[C@@]2(C)c3cc(O)ccc3C[C@@H]1[C@@H]2N(CCc1ccc(F)cc1)CC(=O)O [Compound 73, N-(4-fluorophenethyl)-N-((2R,6S,11R)-8-hydroxy-3,6-dimethyl-1,2,3,4,5,6-hexahydro-2,6-methanobenzo[d]azocin-11-yl)glycine]
EC50 (μ-opioid receptor [2]): 0.0572 ± 0.0127 µM | Emax (μ-opioid receptor [2]): 68.8 ± 1.77%

CN1CC[C@@]2(C)c3cc(C(=O)O)ccc3C[C@@H]1C2(O)O [Compound 117, (2R,6S)-11,11-dihydroxy-3,6-dimethyl-1,2,3,4,5,6-hexahydro-2,6-methanobenzo[d]azocine-8-carboxylic acid]
EC50 (μ-opioid receptor [2]; bound given in uM): > 20 µM | Emax (μ-opioid receptor [2]): 0%
